According to the supplement of paper PMC10883282:

Key:
Assay in all cases: standardised AUC of viability dose-response curve (72 h) (fraction (0-1)); higher = less growth inhibition (more resistant)
RD = system: RD
How it was run: (§1)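 After 72 h with 2.5 µl of compound (compound-plate series 10 mM to 0.0002 mM), triplicate wells of sarcoma cell lines in 384-well plates were read with ATPLite, with viability scaled 1 (full) to 0 (none) and fitted with a four-parameter log-logistic model. The values give the standardised area under the dose-response curve in log-dose space from a modified drexplorer computeAUC. A value of 1 means no response and 0 means full response.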

HT1080 = system: HT1080
How it was run: as §1

G401 = system: G401
How it was run: as §1

KHOS-240S = system: KHOS-240S
How it was run: as §1

A204 = system: A204
How it was run: as §1

SW1353 = system: SW1353
How it was run: as §1

SW982 = system: SW982
How it was run: as §1

SK-LMS-1 = system: SK-LMS-1
How it was run: as §1

HS729 = system: HS729
How it was run: as §1

KHOS-NP = system: KHOS-NP
How it was run: as §1

VA-ES-BJ = system: VA-ES-BJ
How it was run: as §1

SW872 = system: SW872
How it was run: as §1

SK-ES-1 = system: SK-ES-1
How it was run: as §1

SYO-1 = system: SYO-1
How it was run: as §1

RD-ES = system: RD-ES
How it was run: as §1

MES-SA = system: MES-SA
How it was run: as §1

SW684 = system: SW684
How it was run: as §1

SMILES | standardised AUC (RD) | standardised AUC (HT1080) | standardised AUC (G401) | standardised AUC (KHOS-240S) | standardised AUC (A204) | standardised AUC (SW1353) | standardised AUC (SW982) | standardised AUC (SK-LMS-1) | standardised AUC (HS729) | standardised AUC (KHOS-NP) | standardised AUC (VA-ES-BJ) | standardised AUC (SW872) | standardised AUC (SK-ES-1) | standardised AUC (SYO-1) | standardised AUC (RD-ES) | standardised AUC (MES-SA) | standardised AUC (SW684)
COc1cc(N2CCC(N3CCN(C)CC3)CC2)ccc1Nc1ncc(Cl)c(Nc2ccccc2P(C)(C)=O)n1 [BRIGATINIB] | 0.694 | 0.907 | 0.816 | 0.766 | 0.833 | 0.77 | 0.649 | 0.883 | 0.728 | 0.889 | 0.763 | 0.778 | 0.713 | 0.681 | 0.7 | 0.908 | 0.904
C[C@@H]1CN(C(=O)c2ccc(NC(=O)c3cc(O[C@H](C)c4c(Cl)ccc(F)c4Cl)c(N)nn3)cc2)C[C@H](C)N1 [ENSARTINIB] | 0.852 | 0.929 | 0.875 | 0.895 | 0.937 | 0.933 | 0.808 | 0.845 | 0.878 | 0.975 | 0.853 | 0.891 | 0.79 | 0.816 | 0.805 | 0.832 | 0.936
C#Cc1cccc(Nc2ncnc3cc4c(cc23)OCCOCCOCCO4)c1 [ICOTINIB] | 1 | 0.988 | 0.995 | 0.99 | 0.958 | 0.947 | 0.989 | 0.982 | 0.918 | 0.996 | 0.975 | 0.958 | 0.986 | 0.966 | 0.985 | 0.976 | 0.986
O=C(/C=C\n1cnc(-c2cc(C(F)(F)F)cc(C(F)(F)F)c2)n1)NNc1cnccn1 [SELINEXOR] | 0.721 | 0.714 | 0.706 | 0.612 | 0.672 | 0.822 | 0.649 | 0.642 | 0.773 | 0.655 | 0.625 | 0.781 | 0.5 | 0.596 | 0.751 | 0.652 | 0.847
